The record followed here is US9783592B2 (priority 2010, dated 2017).

The target in series [1] is T1, ERα (Homo sapiens, UniProt P03372). Type of series: cell-based. More on the design: T47D cells transfected with the luciferase gene fused to the estrogen response element (ERE); endogenous in cells; host or cells: T47D. The conditions noted are these: T47D cells, ERE-luciferase.
A short description of series [2]: Example 20: DIO mice, daily s.c. dosing. Type of series: in vivo.
Series [3] deals with T1, ERα. As to conditions: read-out: ERα IC50; purified ERα, [I125]-estradiol.
Series [4] addresses T2, GLP-1 receptor (Homo sapiens, UniProt P43220).
T2 construct: expressed in transfected cells; host or cells: HEK293
Put plainly: GLP-1 binding, [I125]-GLP-1 SPA with receptor membrane extracts. The conditions noted are these: read-out: GLP-1 IC50, Example 22, GLP-1 receptor cell membrane extracts.

In series [5] the target is T2, GLP-1 receptor. Put plainly: GLP-1 activity (cAMP induction), CRE-luciferase reporter assay in HEK293 cells. Type of series: cell-based. As to conditions: read-out: GLP-1 EC50; Example 22; HEK293 cells co-transfected with GLP-1 receptor and CRE-luciferase.
Series [6] can be described thus: Stability analysis in human plasma (estrogen release). Type of series: in vitro ADME. The conditions noted are these: 1 mg/mL, 100% human plasma, pH 7.4, 37° C.
Series [7] is described as follows: solubility in aqueous solution. Type of series: physicochemical.
For a further series, the target named is T3, glucagon receptor (Homo sapiens, UniProt P47871).
T3 construct: expressed in transfected cells; host or cells: HEK293
T3 sequence (P47871 26-477): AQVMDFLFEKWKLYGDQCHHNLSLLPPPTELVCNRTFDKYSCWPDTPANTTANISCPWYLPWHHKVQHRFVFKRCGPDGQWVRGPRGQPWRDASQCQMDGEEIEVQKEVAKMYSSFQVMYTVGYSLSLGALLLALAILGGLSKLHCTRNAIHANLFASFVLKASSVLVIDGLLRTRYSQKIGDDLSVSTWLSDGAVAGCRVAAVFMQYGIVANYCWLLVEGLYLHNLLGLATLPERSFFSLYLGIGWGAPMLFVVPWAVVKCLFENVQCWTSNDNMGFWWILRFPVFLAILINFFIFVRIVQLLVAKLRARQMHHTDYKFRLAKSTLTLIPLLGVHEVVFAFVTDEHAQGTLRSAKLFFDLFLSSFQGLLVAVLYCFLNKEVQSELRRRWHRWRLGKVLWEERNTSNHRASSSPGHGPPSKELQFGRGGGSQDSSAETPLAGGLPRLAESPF
In words: glucagon antagonist activity, reduction of glucagon-induced cAMP production in an in vitro assay. Type of series: cell-based. As to conditions: PLA at position 6 versus positions 4 and 5.

Series [8] addresses T2, GLP-1 receptor. In words: GLP-1 receptor activation, cAMP induction in HEK293 cells over-expressing the receptor (luciferase reporter). Type of series: cell-based. A general note: Reporter assays use an easily measured gene product as a stand-in for the process of interest.

T2 sequence (P43220 24-463, species assumed): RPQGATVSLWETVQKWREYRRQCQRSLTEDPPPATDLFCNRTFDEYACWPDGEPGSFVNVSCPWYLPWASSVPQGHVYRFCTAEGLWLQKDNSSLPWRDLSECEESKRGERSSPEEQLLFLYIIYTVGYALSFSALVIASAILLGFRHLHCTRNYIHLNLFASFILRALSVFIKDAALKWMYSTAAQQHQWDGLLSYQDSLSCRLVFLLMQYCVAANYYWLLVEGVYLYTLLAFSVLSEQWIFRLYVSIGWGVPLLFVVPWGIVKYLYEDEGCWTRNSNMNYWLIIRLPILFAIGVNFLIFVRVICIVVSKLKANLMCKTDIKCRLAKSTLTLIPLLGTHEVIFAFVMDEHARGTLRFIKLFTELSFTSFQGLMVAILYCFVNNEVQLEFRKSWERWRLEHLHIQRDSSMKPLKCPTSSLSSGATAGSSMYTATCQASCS
T1 sequence (P03372 whole entry, the tested form may be a part): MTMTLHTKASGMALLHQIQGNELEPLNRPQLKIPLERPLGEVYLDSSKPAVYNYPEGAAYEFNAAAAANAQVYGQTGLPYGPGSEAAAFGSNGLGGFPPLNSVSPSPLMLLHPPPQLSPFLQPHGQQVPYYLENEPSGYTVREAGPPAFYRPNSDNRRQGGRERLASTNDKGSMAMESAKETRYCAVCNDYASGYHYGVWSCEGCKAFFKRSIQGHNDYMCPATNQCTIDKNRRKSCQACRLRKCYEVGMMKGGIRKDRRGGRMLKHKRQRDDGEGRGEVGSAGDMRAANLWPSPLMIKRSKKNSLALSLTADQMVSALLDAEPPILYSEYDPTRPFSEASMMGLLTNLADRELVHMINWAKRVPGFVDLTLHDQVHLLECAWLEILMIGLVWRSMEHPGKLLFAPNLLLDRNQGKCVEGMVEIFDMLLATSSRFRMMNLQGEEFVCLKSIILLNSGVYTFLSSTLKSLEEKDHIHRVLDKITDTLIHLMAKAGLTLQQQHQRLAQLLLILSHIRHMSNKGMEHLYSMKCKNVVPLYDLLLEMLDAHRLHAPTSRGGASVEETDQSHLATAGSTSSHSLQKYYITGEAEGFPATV

Usually EC50 stands for the midpoint of the concentration-response curve. A word on the IC50: it is the concentration at which inhibition is half-maximal. For the compound `CC[C@H](C)[C@H](NC(=O)[C@H](Cc1ccccc1)NC(=O)[C@H](CCC(=O)O)NC(=O)[C@H](CCCCN)NC(=O)[C@H](C)NC(=O)[C@H](C)NC(=O)[C@H](CCC(N)=O)NC(=O)[C@H](CCC(=O)O)NC(=O)[C@H](CCC(=O)O)NC(=O)[C@H](CC(C)C)NC(=O)[C@H](Cc1ccc(O)cc1)NC(=O)[C@H](CO)NC(=O)[C@H](CO)NC(=O)[C@@H](NC(=O)[C@H](CC(=O)O)NC(=O)[C@H](CO)NC(=O)[C@@H](NC(=O)[C@H](Cc1ccccc1)NC(=O)[C@@H](NC(=O)CNC(=O)[C@H](CCC(=O)O)NC(=O)C(C)(C)NC(=O)[C@@H](N)Cc1c[nH]cn1)[C@@H](C)O)[C@@H](C)O)C(C)C)C(=O)N[C@@H](C)C(=O)N[C@@H](Cc1c[nH]c2ccccc12)C(=O)N[C@@H](CC(C)C)C(=O)N[C@H](C(=O)N[C@@H](CCCCN)C(=O)NCC(=O)NCC(=O)N1CCC[C@H]1C(=O)N[C@@H](CO)C(=O)N[C@@H](CO)C(=O)NCC(=O)N[C@@H](C)C(=O)N1CCC[C@H]1C(=O)N1CCC[C@H]1C(=O)N1CCC[C@H]1C(=O)N[C@@H](CO)C(=O)N[C@@H](CCCCNC(=O)CCC(=O)Oc1ccc2c(c1)CC[C@@H]1[C@@H]2CC[C@]2(C)[C@@H](OC(C)=O)CC[C@@H]12)C(N)=O)C(C)C` [GLP-1/Estrogen(3-ester)], the EC50 amounted to 0.013 ± 0.001 nM at ERα [1] and 0.014 ± 0.001 nM on GLP-1 receptor [5]. The fat mass entry in series [2] (FIG. 9b) was “least amount of fat mass”. The “change in body weight” value in series [2] (s.c. once per day, after 7 days) is recorded as “greatest decrease in body weight”. The IC50 on ERα [3] was 198 ± 16.8 nM; on GLP-1 receptor [4], 0.627 ± 0.046 nM.

On to `CC[C@H](C)[C@H](NC(=O)[C@H](Cc1ccccc1)NC(=O)[C@H](CCC(=O)O)NC(=O)[C@H](CCCCN)NC(=O)[C@H](C)NC(=O)[C@H](C)NC(=O)[C@H](CCC(N)=O)NC(=O)[C@H](CCC(=O)O)NC(=O)[C@H](CCC(=O)O)NC(=O)[C@H](CC(C)C)NC(=O)[C@H](Cc1ccc(O)cc1)NC(=O)[C@H](CO)NC(=O)[C@H](CO)NC(=O)[C@@H](NC(=O)[C@H](CC(=O)O)NC(=O)[C@H](CO)NC(=O)[C@@H](NC(=O)[C@H](Cc1ccccc1)NC(=O)[C@@H](NC(=O)CNC(=O)[C@H](CCC(=O)O)NC(=O)C(C)(C)NC(=O)[C@@H](N)Cc1c[nH]cn1)[C@@H](C)O)[C@@H](C)O)C(C)C)C(=O)N[C@@H](C)C(=O)N[C@@H](Cc1c[nH]c2ccccc12)C(=O)N[C@@H](CC(C)C)C(=O)N[C@H](C(=O)N[C@@H](CCCCN)C(=O)NCC(=O)NCC(=O)N1CCC[C@H]1C(=O)N[C@@H](CO)C(=O)N[C@@H](CO)C(=O)NCC(=O)N[C@@H](C)C(=O)N1CCC[C@H]1C(=O)N1CCC[C@H]1C(=O)N1CCC[C@H]1C(=O)N[C@@H](CO)C(=O)N[C@@H](CCCCNC(=O)COc1ccc2c(c1)CC[C@@H]1[C@@H]2CC[C@]2(C)[C@@H](O)CC[C@@H]12)C(N)=O)C(C)C` [GLP-1/Estrogen(3-ether)], for which, in series [6], the “estrogen release in plasma” value was “no estrogen release over 72 hours”.

In the case of `CSCC[C@H](NC(=O)[C@H](CC(C)C)NC(=O)[C@H](Cc1c[nH]c2ccccc12)NC(=O)[C@H](CCC(N)=O)NC(=O)[C@@H](NC(=O)[C@H](Cc1ccccc1)NC(=O)[C@H](CC(=O)O)NC(=O)[C@H](CCC(N)=O)NC(=O)[C@H](C)NC(=O)[C@H](CCCN=C(N)N)NC(=O)[C@H](CCCN=C(N)N)NC(=O)[C@H](CO)NC(=O)[C@H](CC(=O)O)NC(=O)[C@H](CC(C)C)NC(=O)[C@H](Cc1ccc(O)cc1)NC(=O)[C@H](CCCCN)NC(=O)[C@H](CO)NC(=O)[C@H](Cc1ccc(O)cc1)NC(=O)[C@H](CC(=O)O)NC(=O)[C@H](CO)NC(=O)[C@@H](NC(=O)[C@H](Cc1ccccc1)NC(=O)[C@@H](NC(=O)CNC(=O)[C@H](CCC(N)=O)NC(=O)[C@H](CO)NC(=O)[C@@H](N)Cc1c[nH]cn1)[C@@H](C)O)[C@@H](C)O)C(C)C)C(=O)N[C@@H](CC(N)=O)C(=O)N[C@H](C(=O)O)[C@@H](C)O` [Glucagon], the “solubility in aqueous solution” value in series [7] was “poor solubility in aqueous solution, particularly at physiological pH”.

As for “PLA6 analog: glucagon peptide, first 5 amino acids removed from the N-terminus, remaining N-terminal amino group replaced with a hydroxyl group”, in the series with glucagon receptor, the glucagon antagonist potency result is on record as “appreciably more potent antagonist than glucagon analogs having a slightly extended N-terminus”.

In the case of “SEQ ID NO: 22: glucagon analog in which the native glutamine at position 3 is substituted with glutamic acid”, the “selectivity for the GLP-1 receptor over the glucagon receptor” value in the series with GLP-1 receptor [8] is “approximately a tenfold selectivity for the GLP-1 receptor”.
